Experimental data published in patent US20210369699A1, “TREATMENT OF LUPUS ERYTHEMATOSUS USING S-HYDROXYCHLOROQUINE” (Genovate Biotechnology Co. Ltd., priority 2020, published 2021).
Where two headings read alike, the source gives them in different places.

Tests used:
[1] = Body weight of treated MRL/lpr mice
Procedure: Pharmacodynamics of HCQ, S-HCQ, and R-HCQ was examined in MRL/lpr mice, a model for human cutaneous lupus erythematosus. […] Eight-week old MRL/lpr mice, were purchased from Jackson Laboratory (ME, USA) and maintained on a 12 h light and dark cycle with constant temperature and humidity control. Animals were given water and food ad-libitum.
Groups of 14-15 mice were treated starting at the age of −15 weeks old with vehicle (10% EtOH in PBS), with low dose (20 mg/kg) or high dose (40 mg/kg) HCQ, S-HCQ, or R-HCQ. Mice in the vehicle and low dose groups were treated orally once daily for 16 weeks from age 15 to 31 weeks. Mice in the high dose groups were treated orally once daily for 14 weeks from age 15 to 29 weeks. Dosing volumes were kept consistent at 10 mL/kg.
MRL/lpr mice treated with vehicle or with 20 mg/kg HCQ, S-HCQ, or R-HCQ were weighed once per week from day 0 (initial day of dosing) to day 111. Animals in the 40 mg/kg groups were weighed daily from day 0 to day 90.

MRL/lpr mice [2] = experiment: Blood urea nitrogen and creatinine concentration in plasma of MRL/lpr mice; format: in vivo; details: end of study; for creatinine concentration in plasma: FIG. 4B
Procedure: (§1) See Furukawa et al., 1996, J. Invest. Dermatol. 107; 95-100; Furukawa et al., 2009, Autoimmun. Rev. 8:495-499; and Shimomatsu et al., 2016, Mod. Rheumatol. 26:744-748. […] Animals were given water and food ad-libitum.
(§2) Dosing volumes were kept consistent at 10 mL/kg.
Plasma was prepared from blood samples collected at the end of the study. They were analyzed for blood urea nitrogen (BUN) level and creatinine concentration using a FUJI DRI-CHEM 4000i instrument as directed by the manufacturer. Elevated BUN and creatinine levels indicate compromised kidney function.

[3] = system: IL-17 production in human peripheral blood mononuclear cells (PBMC); experiment: IL-17 production in PMA/ionomycin-stimulated PBMC (ELISA); format: cell-based; details: for IL-17 pg/mL (mean ± SD): n = 3; for inhibition at 25 µM / inhibition at 50 µM / inhibition at 100 µM / inhibition at 5 µM: PBMC; for inhibition at 25 µM / inhibition at 50 µM / inhibition at 100 µM / (%) inhibition / inhibition at 5 µM: IL-17 synthesis
Procedure: Hydroxychloroquine (HCQ) and its pure optical isomers S-hydroxychloroquine (S-HCQ; enantiomeric excess of 99.0%) and R-hydroxychloroquine (R-HCQ; enantiomeric excess of 98.3%) were tested in an in vitro pharmacodynamic assay to determine their efficacy at inhibiting interleukin 17 (IL-17) production in human peripheral blood mononuclear cells (PBMC) stimulated with phorbol myristate acetate (PMA) and ionomycin.
Cells were cultured at 37° C. with 5% CO2 in RPMI-1640 medium (Gibco, 11875-093) supplemented with 10% Fetal Bovine Serum (Gibco, 10437-028), 10 mM HEPES (Gibco, 15630-080), and 100 U/mL Penicillin/Streptomycin (Gibco, 15140-122).
PBMC were seeded at a density of 10^6 cells/ml in each well of a 96-well round bottom microplate (Corning, 7007) then stimulated with 25 ng/ml PMA and 1 μg/ml ionomycin in the absence and presence of 25 μM, 50 μM, or 100 μM HCQ, S-HCQ or R-HCQ each dissolved in ethanol. The final concentration of ethanol in the culture medium was 0.75%. PBMC treated with 5 μM methylprednisolone served as a positive control.
After incubation for 48 or 72 hours, the cell culture supernatants were collected and stored at −80° C. until analysis. The levels of IL-17 induced by PMA/ionomycin-stimulated PBMC were analyzed using human IL-17 Quantikine ELISA Kit (R & D system, D1700) according to product information.

[4] = biological target: T1, human ether-a-go-go-related gene (hERG) voltage-gated potassium channel (Homo sapiens, UniProt Q12809); experiment: In vitro cardiotoxicity assay: hERG patch-clamp in HEK-293 cells
Procedure: (§3) A conventional patch-clamp technique was used to determine inhibitory effects on hERG. Human embryonic kidney cells (HEK-293) stably transfected with human hERG cDNA were plated on collagen-coated 35-mm cell culture dishes at low density for 1-7 days. For single-cell patch-clamp recording, the intracellular solution contained 130 mM KCl, 10 mM NaCl, 1 mM MgCl2, 10 mM EGTA, 5 mM MgATP, and 10 mM HEPES (pH adjusted to 7.2 with KOH). The extracellular solution contained acellular Solution (mM): 137 mM NaCl, 4 mM KCl, 1.8 mM CaCl2, 1 mM MgCl2, 10 mM D(+)-Glucose, and 10 mM HEPES (pH adjusted to 7.4 with NaOH). All measurements were performed at room temperature.
(§4) After cell capture, a pulse protocol was implemented that involved stepping from a holding potential of −80 mV to +40 mV for 4 s to inactivate hERG channels. The membrane voltage was then stepped back to −50 mV for 4 s to evoke a tail current prior to returning to the holding potential. This sequence was repeated with an inter-pulse interval of 20 s. […] Evoked peak tail current amplitudes were continuously monitored throughout the experiment. Each compound was applied from low to high concentrations sequentially to the same cell for five minutes.
(§5) The percent inhibition of hERG channel was calculated by comparing the tail current amplitude before and after application of the compound, the current difference being normalized to control. The amplitude of the hERG peak tail current was calculated by measuring the tail current on stepping to −50 mV. The current was measured before and after each compound addition. […] Percent inhibition values were used to calculate the IC50 for each tested compound.

[5] = biological target: T1, human ether-a-go-go-related gene (hERG) voltage-gated potassium channel
Procedure: as §3, §4, §5

MRL/lpr mice [6] = experiment: Survival of treated MRL/lpr mice; format: in vivo; details: observed 70-80 days
Procedure: as §1, §2
The number of live and dead mice was recorded each day beginning from the first dosing day at age 15 weeks.

MRL/lpr mice [7] = experiment: Skin lesions in treated MRL/lpr mice; format: in vivo; details: for mean score of skin lesions versus time (onset of skin inflammation and lesions): HCQ and R-HCQ, FIG. 3A
Procedure: as §1, §2
Inflammation and skin lesions in the MRL/lpr mice were scored twice per week from the regions of dorsal neck, forehead, snout, and ears using a previously described scoring scale. See Keil et al., 2016, Arthritis Res. Ther. 18:243. Briefly, animals with no skin lesions were scored as 0, those having minimal hair loss with redness and a few scattered lesions were scored as 1, and those with redness, scabbing, and hair loss with a small area of involvement were scored as 2.
The mean score of skin lesions in each group from Day 68 to Day 111 for vehicle and low dose groups and from Day 68 to Day 90 for high dose groups after first dosing were plotted and are shown in FIG. 3A.
The data was reanalyzed by comparing the average skin lesion scores for each treatment over the entire test period. The skin lesion scores from day 68 to day 111 after initial dosing were averaged for the vehicle and the low dose groups and compared, as shown in FIG. 3B. The skin lesion scores from day 68 to day 90 after initial dosing were averaged for the vehicle and the high dose groups and compared, as shown in FIG. 3C.

[8] = 25 μM, 48 h, PMA/ionomycin-stimulated PBMC
[9] = 25 μM, 72 h, PMA/ionomycin-stimulated PBMC
[10] = 50 μM, 48 h, PMA/ionomycin-stimulated PBMC
[11] = 50 μM, 72 h, PMA/ionomycin-stimulated PBMC
[12] = 100 μM, 48 h, PMA/ionomycin-stimulated PBMC
[13] = 100 μM, 72 h, PMA/ionomycin-stimulated PBMC

T1 sequence (Q12809 whole entry): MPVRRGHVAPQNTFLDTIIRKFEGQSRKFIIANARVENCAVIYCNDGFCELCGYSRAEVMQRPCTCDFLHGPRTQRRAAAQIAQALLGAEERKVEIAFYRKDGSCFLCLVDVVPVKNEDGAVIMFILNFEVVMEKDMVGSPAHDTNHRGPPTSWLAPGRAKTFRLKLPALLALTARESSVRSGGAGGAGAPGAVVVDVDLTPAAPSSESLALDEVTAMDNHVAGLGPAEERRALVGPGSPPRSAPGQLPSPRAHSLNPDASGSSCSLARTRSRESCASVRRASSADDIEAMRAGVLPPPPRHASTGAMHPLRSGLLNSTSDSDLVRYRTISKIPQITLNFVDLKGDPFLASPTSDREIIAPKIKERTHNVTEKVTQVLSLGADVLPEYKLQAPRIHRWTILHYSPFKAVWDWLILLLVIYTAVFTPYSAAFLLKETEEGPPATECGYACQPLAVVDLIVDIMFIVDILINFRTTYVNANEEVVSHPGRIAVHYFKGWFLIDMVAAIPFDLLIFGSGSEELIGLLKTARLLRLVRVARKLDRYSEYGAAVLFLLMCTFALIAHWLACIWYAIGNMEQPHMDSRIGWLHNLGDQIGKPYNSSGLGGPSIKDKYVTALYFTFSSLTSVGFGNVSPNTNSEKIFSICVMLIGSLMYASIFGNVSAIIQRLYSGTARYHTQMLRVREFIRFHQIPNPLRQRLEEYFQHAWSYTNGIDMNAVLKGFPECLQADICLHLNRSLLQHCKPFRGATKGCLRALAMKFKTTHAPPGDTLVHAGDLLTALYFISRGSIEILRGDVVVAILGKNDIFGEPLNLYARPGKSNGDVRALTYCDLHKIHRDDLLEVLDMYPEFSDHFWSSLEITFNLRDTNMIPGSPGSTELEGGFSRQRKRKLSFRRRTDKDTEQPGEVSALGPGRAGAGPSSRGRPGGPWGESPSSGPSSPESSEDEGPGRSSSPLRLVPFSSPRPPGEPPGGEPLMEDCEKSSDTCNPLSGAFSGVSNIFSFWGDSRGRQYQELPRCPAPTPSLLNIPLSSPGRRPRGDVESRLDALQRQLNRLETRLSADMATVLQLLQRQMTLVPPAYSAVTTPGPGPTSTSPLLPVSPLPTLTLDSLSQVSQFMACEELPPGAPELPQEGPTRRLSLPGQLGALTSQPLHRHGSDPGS

Structure (SMILES)	creatinine concentration in plasma (MRL/lpr mice [2]; 20 mg/kg orally once daily)	IL-17 pg/mL (mean ± SD) [3, 8]	IL-17 pg/mL (mean ± SD) [3, 9]	IL-17 pg/mL (mean ± SD) [3, 10]	IL-17 pg/mL (mean ± SD) [3, 11]	IL-17 pg/mL (mean ± SD) [3, 12]	IL-17 pg/mL (mean ± SD) [3, 13]	IC50 [5]	creatinine concentration in plasma (MRL/lpr mice [2]; 40 mg/kg orally once daily)	(%) inhibition ([3]; 25 μM, 48 h)	(%) inhibition ([3]; 25 μM, 72 h)	(%) inhibition ([3]; 50 μM, 48 h)	(%) inhibition ([3]; 50 μM, 72 h)	(%) inhibition ([3]; 100 μM, 48 h)	(%) inhibition ([3]; 100 μM, 72 h)	also measured
CCN(CCO)CCCC(C)Nc1ccnc2cc(Cl)ccc12 (racemic) [HCQ, Hydroxychloroquine]	lower	480.4 ± 13.1 pg/mL	502.4 ± 20.7 pg/mL	344.8 ± 12.2 pg/mL	341.1 ± 47.4 pg/mL	214.5 ± 15.3 pg/mL	203.0 ± 10.8 pg/mL									mean body weight vs vehicle ([1]; 20 mg/kg orally once daily, day 0 to day 111, FIG. 1A): No obvious difference in mean body weight; mean body weight vs vehicle ([1]; 40 mg/kg orally once daily, day 0 to day 90, FIG. 1B): No obvious difference in mean body weight; inhibition at 25 µM ([3]; Homo sapiens, 25 μM, 48 h): 3%; inhibition at 25 µM ([3]; Homo sapiens, 25 μM, 72 h): 23%; inhibition at 50 µM ([3]; Homo sapiens, 50 μM, 48 h): 30%; inhibition at 50 µM ([3]; Homo sapiens, 50 μM, 72 h): 48%; inhibition at 100 µM ([3]; Homo sapiens, 100 μM, 48 h): 57%; inhibition at 100 µM ([3]; Homo sapiens, 100 μM, 72 h): 69%; IC50 ([3]; Homo sapiens, PMA/ionomycin-stimulated PBMC, 48 h or 72 h, read-out: absolute IC50 of IL-17 inhibition): 50 to 100 µM; IC50 [4]: 4.84 µM
CCN(CCO)CCCC(C)Nc1ccnc2cc(Cl)ccc12 (stereo not drawn) [R-HCQ, R-hydroxychloroquine]	lower	471.6 ± 32.9 pg/mL	564.0 ± 72.9 pg/mL	289.4 ± 34.7 pg/mL	326.8 ± 33.6 pg/mL	154.0 ± 18.1 pg/mL	179.2 ± 31.8 pg/mL	4.2 µM	lower	5%	13%	42%	50%	69%	72%	
CCN(CCO)CCC[C@H](C)Nc1ccnc2cc(Cl)ccc12 [S-HCQ, S-hydroxychloroquine]		432.6 ± 28.9 pg/mL	486.5 ± 8.9 pg/mL	292.0 ± 21.6 pg/mL	354.6 ± 52.5 pg/mL	215.0 ± 24.6 pg/mL	248.9 ± 38.9 pg/mL	11 µM	most significant decrease in creatinine concentration	13%	25%	41%	45%	57%	62%	fractional survival compared to vehicle, HCQ and R-HCQ (MRL/lpr mice [6]; 20 mg/kg orally once daily, FIG. 2A): higher fractional survival; fractional survival compared to vehicle, HCQ and R-HCQ (MRL/lpr mice [6]; 40 mg/kg orally once daily, FIG. 2B): higher fractional survival; blood urea nitrogen (BUN) level in plasma (MRL/lpr mice [2]; 40 mg/kg orally once daily, compared to any other treatments, FIG. 4A): significantly lower; average skin lesion score over the test period vs vehicle (MRL/lpr mice [7]; 20 mg/kg (low dose), day 68 to day 111, t-test p<0.005, FIG. 3B): significantly reduced skin lesion scores; mean score of skin lesions versus time (onset of skin inflammation and lesions) (MRL/lpr mice [7]; 20 mg/kg orally once daily, Day 68 to Day 111, compared to vehicle): superior in reducing the onset of skin inflammation and lesions; average skin lesion score over the test period vs vehicle (MRL/lpr mice [7]; 40 mg/kg (high dose), day 68 to day 90, t-test p<0.005, FIG. 3C): significantly reduced skin lesion scores; mean score of skin lesions versus time (onset of skin inflammation and lesions) (MRL/lpr mice [7]; 40 mg/kg orally once daily, Day 68 to Day 90, compared to vehicle): superior in reducing the onset of skin inflammation and lesions
C[C@H]1C[C@@H]2[C@H]([C@@H](O)C[C@@]3(C)[C@H]2CC[C@]3(O)C(=O)CO)[C@@]2(C)C=CC(=O)C=C12 [methylprednisolone]																IL-17 pg/mL (mean ± SD) ([3]; 5 μM, 48 h, PMA/ionomycin-stimulated PBMC): 266.7 ± 15.3 pg/mL; IL-17 pg/mL (mean ± SD) ([3]; 5 μM, 72 h, PMA/ionomycin-stimulated PBMC): 282.0 ± 37.6 pg/mL; inhibition at 5 µM ([3]; Homo sapiens, 5 μM, 48 h): 46%; inhibition at 5 µM ([3]; Homo sapiens, 5 μM, 72 h): 57%
